ChEMBL document CHEMBL1135760, “Anilinoquinazoline inhibitors of fructose 1,6-bisphosphatase bind at a novel allosteric site: synthesis, in vitro characterization, and X-ray crystallography” (J Med Chem, 2002)

Target: not listed separately
Assay: Inhibition of human recombinant wild type fructose-1,6-bisphosphatase (F16BP)
Conditions: not given

Row | SMILES | IC50 [µM]
1 | CCOc1cc2ncnc(Nc3cc(-c4csc(C)n4)ccc3CC)c2cc1OCC | 2.1
2 | CCOc1cc2ncnc(Nc3cc(-c4csc(C)n4)ccc3OC)c2cc1OCC | 0.99
3 | CCOc1cc2ncnc(Nc3cc(-c4csc(C)n4)cc(C(F)(F)F)c3)c2cc1OCC | > 10
4 | CCOc1cc2ncnc(Nc3cccc(-c4csc(N(C)C)n4)c3)c2cc1OCC | 8
5 | CCOc1cc2ncnc(Nc3cccc(C(C)=O)c3)c2cc1OCC | > 10
6 | CCOc1cc2nc(CCCCl)nc(Nc3cccc(-c4csc(C)n4)c3)c2cc1OCC | 4.1
7 | CCCCOc1cc2c(Nc3cccc(-c4csc(C)n4)c3)ncnc2cc1OC | > 10
8 | COc1cc2ncnc(Nc3cccc(-c4csc(C)n4)c3)c2cc1OC(C)C | > 10
9 | CCOc1cc2ncnc(Nc3cccc(-c4csc(N)n4)c3)c2cc1OCC | 3.5
10 | CCOc1cc2ncnc(Nc3ccc(F)c(-c4csc(C)n4)c3)c2cc1OCC | 0.61
11 | CCOc1cc2ncnc(Nc3cccc(-c4csc(C5CC5)n4)c3)c2cc1OCC | 0.83
12 | CCOc1cc2ncnc(Nc3cccc(-c4csc(NC)n4)c3)c2cc1OCC | 0.8
13 | COCCOc1cc2c(Nc3cccc(-c4csc(C)n4)c3)ncnc2cc1OC | > 10
14 | CCOc1cc2ncnc(Nc3cccc(-c4cnc(C)o4)c3)c2cc1OCC | 4
15 | CCOc1cc2ncnc(Nc3cccc(-c4ccco4)c3)c2cc1OCC | 1.4
16 | CCOc1cc2ncnc(Nc3cccc(-c4csc(COC)n4)c3)c2cc1OCC | 7.3
17 | CCOc1cc2nc(CN(C)C)nc(Nc3cccc(-c4csc(C)n4)c3)c2cc1OCC | 2
18 | CCOc1cc2ncnc(Nc3cccc(-c4csc(C(=O)O)n4)c3)c2cc1OCC | > 10
19 | CCOc1cc2nc(COC)nc(Nc3cccc(-c4csc(C)n4)c3)c2cc1OCC | 1.4
20 | C#Cc1cc(Nc2ncnc3cc(OC)c(OC)cc23)ccc1F | 0.25
21 | CCOc1cc2ncnc(Nc3cccc(-c4csc(OC)n4)c3)c2cc1OCC | 0.78
22 | CCOc1cc2ncnc(Nc3cccc(-c4cncs4)c3)c2cc1OCC | 0.98

Row | SMILES | IC50 [µM]
23 | Cc1nc(-c2cccc(Nc3ncnc4cc5ccccc5cc34)c2)cs1 | > 10
24 | CCOc1cc2nc(CC(C)C)nc(Nc3cccc(Br)c3)c2cc1OCC | > 10
25 | CCOc1cc2nc(CC)nc(Nc3cccc(-c4csc(C)n4)c3)c2cc1OCC | 1.5
26 | CCOc1ccc(-c2csc(C)n2)cc1Nc1ncnc2cc(OCC)c(OCC)cc12 | 1.8
27 | CCOc1cc2ncnc(Nc3cccc(-c4coc(C)n4)c3)c2cc1OCC | 0.5
28 | COc1cc2ncnc(Nc3cccc(-c4csc(C)n4)c3)c2cc1OC | 4.4
29 | CCOc1cc2ncnc(Nc3cccc(-c4csc(Cc5ccccc5)n4)c3)c2cc1OCC | > 10
30 | CCOc1cc2ncnc(Nc3cccc(-c4csc(NN)n4)c3)c2cc1OCC | 4.5
31 | CCOc1cc2nc(CCN)nc(Nc3cccc(-c4csc(C)n4)c3)c2cc1OCC | 0.22
32 | CCOc1cc2nc(CC(=O)O)nc(Nc3cccc(-c4csc(C)n4)c3)c2cc1OCC | 0.96
33 | CCOc1cc2nc(CCl)nc(Nc3cccc(Br)c3)c2cc1OCC | > 10
34 | CCOc1cc2ncnc(Nc3ccc(Cl)c(-c4csc(C)n4)c3)c2cc1OCC | 5.3
35 | CCOc1cc2nc(CN)nc(Nc3cccc(-c4csc(C)n4)c3)c2cc1OCC | 1.5
36 | CCCc1nc(Nc2cccc(-c3csc(C)n3)c2)c2cc(OCC)c(OCC)cc2n1 | 1.4
37 | CCOc1cc2nc(CCl)nc(Nc3cccc(-c4csc(C)n4)c3)c2cc1OCC | 0.87
38 | CCOc1cc2ncnc(Nc3cccc(-c4ccccc4)c3)c2cc1OCC | > 10
39 | CCOc1cc2ncnc(Nc3cccc(C(=O)CBr)c3)c2cc1OCC | > 10
40 | CCOc1cc2nc(CN(C)C)nc(Nc3cccc(-c4csc(C(N)=O)n4)c3)c2cc1OCC | 2.4
41 | COc1cc2c(Nc3cccc(-c4csc(C)n4)c3)ncnc2cc1OCC(C)C | > 10
42 | CCOc1cc2ncnc(Nc3cccc(-c4cccc(C)c4)c3)c2cc1OCC | > 10
43 | CCOc1cc2ncnc(Nc3ccc(F)c(-c4csc(C)n4)c3F)c2cc1OCC | > 10
44 | CCOc1cc2ncnc(Nc3cc(-c4csc(C)n4)c(F)cc3F)c2cc1OCC | > 10

Row | SMILES | IC50 [µM]
45 | CCNCc1nc(Nc2cccc(-c3csc(C)n3)c2)c2cc(OCC)c(OCC)cc2n1 | 6
46 | CCOc1cc2nc(Cc3ccccc3)nc(Nc3cccc(-c4csc(C)n4)c3)c2cc1OCC | > 10
47 | CCOc1cc2ncnc(Nc3cccc(-c4ccccn4)c3)c2cc1OCC | 0.39
48 | CCCOc1cc2ncnc(Nc3cccc(-c4csc(C)n4)c3)c2cc1OC | 5.6
49 | CCOc1nc(-c2cccc(Nc3ncnc4cc(OCC)c(OCC)cc34)c2)cs1 | 6.1
50 | CCOc1cc2ncnc(Nc3cccc(-c4nc(C(N)=O)cs4)c3)c2cc1OCC | 0.83
51 | CCOc1cc2nc(CC(C)C)nc(Nc3cccc(-c4csc(C)n4)c3)c2cc1OCC | 1.7
52 | COCCOc1cc2ncnc(Nc3cccc(-c4csc(C)n4)c3)c2cc1OC | > 10
53 | CCOc1cc2ncnc(Nc3cccc(-c4csc(C)n4)c3)c2cc1OC | 3.4
54 | COc1cc2c(Nc3cccc(-c4csc(C)n4)c3)ncnc2cc1OC1CCCC1 | > 10
55 | CCCc1nc(-c2cccc(Nc3ncnc4cc(OCC)c(OCC)cc34)c2)cs1 | > 10
56 | CCOc1cc2ncnc(Nc3cccc(-c4nc[nH]n4)c3)c2cc1OCC | 0.64
57 | CCOc1cc2c(Nc3cccc(-c4csc(C)n4)c3)ncnc2cc1OC(C)C | 0.42
58 | CCOc1cc2nc(C(F)(F)F)nc(Nc3cccc(-c4csc(C)n4)c3)c2cc1OCC | > 10
59 | CCOc1cc2ncnc(Nc3cccc(-c4cccnc4)c3)c2cc1OCC | 1.4
60 | CCOc1cc2ncnc(Nc3cc(-c4csc(C)n4)ccc3Br)c2cc1OCC | > 10
61 | CCCOc1cc2ncnc(Nc3cccc(-c4csc(C)n4)c3)c2cc1OCC | 1
62 | CCOc1cc2nc(Cl)nc(Nc3cccc(-c4csc(C)n4)c3)c2cc1OCC | 2.6
63 | CCOc1cc2ncnc(Nc3cccc(-c4ccc(C)cc4)c3)c2cc1OCC | > 10
64 | CCOc1cc2ncnc(Nc3cc(-c4csc(C)n4)ccc3F)c2cc1OCC | 0.48
65 | CCOc1cc2nc(CS(C)(=O)=O)nc(Nc3cccc(Br)c3)c2cc1OCC | > 10
66 | CCOc1cc2nc(CCCl)nc(Nc3cccc(-c4csc(C)n4)c3)c2cc1OCC | 1

Row | SMILES | IC50 [µM]
67 | CCOc1cc2c(Nc3cccc(-c4csc(C)n4)c3)ncnc2c(OCC)c1OCC | > 10
68 | CCOc1cc2nc(CS(C)(=O)=O)nc(Nc3cccc(-c4csc(C)n4)c3)c2cc1OCC | 2.1
69 | CCOc1cc2ncnc(Nc3cccc(-c4nc(C)cs4)c3)c2cc1OCC | 0.65
70 | CCOc1cc2ncnc(Nc3cccc(-c4ccccc4C)c3)c2cc1OCC | > 10
71 | CCOc1cc2ncnc(Nc3cccc(-c4cscn4)c3)c2cc1OCC | 0.39
72 | CCOc1cc2ncnc(Nc3cc(-c4csc(C)n4)ccc3C)c2cc1OCC | 1.8
73 | CCOc1cc2ncnc(Nc3cccc(-c4cocn4)c3)c2cc1OCC | 3.6
74 | Cc1nc(-c2cccc(Nc3ncnc4ccccc34)c2)cs1 | > 10
75 | CCOc1cc2ncnc(Nc3cccc(-c4cncnc4)c3)c2cc1OCC | 1.2
76 | CCC(C)Oc1cc2ncnc(Nc3cccc(-c4csc(C)n4)c3)c2cc1OC (centres undefined) | 1.3
77 | CCOc1cc2ncnc(Nc3cccc(-c4cc[nH]n4)c3)c2cc1OCC | 0.73
78 | COc1cc2c(Nc3cccc(-c4csc(C)n4)c3)ncnc2cc1OC(C)C | 2.3
79 | CCOc1cc2nc(Cn3ccnc3)nc(Nc3cccc(-c4csc(C)n4)c3)c2cc1OCC | 0.77
80 | CCOc1cc2nc(C)nc(Nc3cccc(-c4csc(C)n4)c3)c2cc1OCC | 1
81 | CCOc1cc2ncnc(Nc3cccc(-c4nccs4)c3)c2cc1OCC | 0.38
82 | CCOc1cc2ncnc(Nc3cccc(-c4csc(-c5ccccc5)n4)c3)c2cc1OCC | > 10
83 | CCCCOc1cc2ncnc(Nc3cccc(-c4csc(C)n4)c3)c2cc1OC | > 10
84 | Cc1nc(-c2cccc(Nc3ncnc4cc5c(cc34)OCCO5)c2)cs1 | > 10
85 | CCOc1cc2nc(CN3CCCC3)nc(Nc3cccc(-c4csc(C)n4)c3)c2cc1OCC | 6.1
86 | CCOc1cc2nc(C(C)C)nc(Nc3cccc(-c4csc(C)n4)c3)c2cc1OCC | 5
87 | CCOc1cc2ncnc(Nc3cc(-c4csc(C)n4)ccc3Cl)c2cc1OCC | 1.7
88 | CCOc1cc2c(Nc3cccc(-c4csc(C)n4)c3)ncnc2cc1OC | 1.2

Target: T1, Epidermal growth factor receptor (Homo sapiens, UniProt P00533)
Assay: (§1) Inhibition of (EGFR) epidermal growth factor receptor tyrosine kinase
Conditions: not given

T1 sequence (P00533 whole entry): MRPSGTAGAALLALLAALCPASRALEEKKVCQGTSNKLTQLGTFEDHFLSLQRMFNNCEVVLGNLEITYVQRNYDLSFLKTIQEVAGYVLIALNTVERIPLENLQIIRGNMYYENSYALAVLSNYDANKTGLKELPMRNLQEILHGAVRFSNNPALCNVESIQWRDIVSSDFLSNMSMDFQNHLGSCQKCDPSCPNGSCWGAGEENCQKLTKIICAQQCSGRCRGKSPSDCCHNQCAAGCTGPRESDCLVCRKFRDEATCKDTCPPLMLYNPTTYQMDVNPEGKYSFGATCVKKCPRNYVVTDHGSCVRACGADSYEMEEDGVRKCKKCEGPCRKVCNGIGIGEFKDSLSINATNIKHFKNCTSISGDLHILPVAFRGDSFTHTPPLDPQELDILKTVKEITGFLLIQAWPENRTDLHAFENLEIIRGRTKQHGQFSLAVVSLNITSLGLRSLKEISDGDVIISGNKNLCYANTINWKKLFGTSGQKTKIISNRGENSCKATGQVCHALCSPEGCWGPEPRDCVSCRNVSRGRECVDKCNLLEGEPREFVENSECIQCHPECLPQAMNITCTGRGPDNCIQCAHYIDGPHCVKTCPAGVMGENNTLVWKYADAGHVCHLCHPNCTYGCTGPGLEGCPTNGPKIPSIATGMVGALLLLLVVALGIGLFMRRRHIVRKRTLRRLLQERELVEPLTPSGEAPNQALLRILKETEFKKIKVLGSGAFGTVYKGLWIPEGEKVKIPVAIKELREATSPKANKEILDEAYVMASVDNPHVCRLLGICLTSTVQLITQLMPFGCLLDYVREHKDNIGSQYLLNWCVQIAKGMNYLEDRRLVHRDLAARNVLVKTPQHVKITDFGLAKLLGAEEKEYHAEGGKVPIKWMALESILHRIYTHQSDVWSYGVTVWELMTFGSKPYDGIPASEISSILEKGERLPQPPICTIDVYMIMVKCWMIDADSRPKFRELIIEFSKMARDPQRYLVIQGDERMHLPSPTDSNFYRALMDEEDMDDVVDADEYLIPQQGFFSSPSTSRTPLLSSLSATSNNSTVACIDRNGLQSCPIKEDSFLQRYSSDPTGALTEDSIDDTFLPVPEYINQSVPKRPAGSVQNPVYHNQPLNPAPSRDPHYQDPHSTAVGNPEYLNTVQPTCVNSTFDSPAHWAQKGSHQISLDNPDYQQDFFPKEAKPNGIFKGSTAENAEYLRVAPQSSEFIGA

Row | SMILES | IC50 [µM]
89 | CCOc1cc2ncnc(Nc3cccc(-c4csc(N)n4)c3)c2cc1OCC | 0.56
90 | CCOc1cc2ncnc(Nc3cccc(-c4cnc(C)o4)c3)c2cc1OCC | > 10
91 | CCOc1cc2ncnc(Nc3cccc(-c4ccco4)c3)c2cc1OCC | 0.003
92 | C#Cc1cc(Nc2ncnc3cc(OC)c(OC)cc23)ccc1F | 0.004
93 | CCOc1cc2ncnc(Nc3cccc(-c4cncs4)c3)c2cc1OCC | 0.011
94 | CCOc1cc2nc(CC)nc(Nc3cccc(-c4csc(C)n4)c3)c2cc1OCC | 9.3
95 | CCOc1cc2ncnc(Nc3cccc(-c4nc[nH]n4)c3)c2cc1OCC | 0.39
96 | CCOc1cc2ncnc(Nc3cccc(-c4cscn4)c3)c2cc1OCC | 0.018
97 | CCOc1cc2ncnc(Nc3cccc(-c4cocn4)c3)c2cc1OCC | 0.72
98 | CCOc1cc2ncnc(Nc3cccc(-c4cncnc4)c3)c2cc1OCC | 1.1
99 | CCOc1cc2ncnc(Nc3cccc(-c4cc[nH]n4)c3)c2cc1OCC | 0.011
100 | CCOc1cc2nc(C)nc(Nc3cccc(-c4csc(C)n4)c3)c2cc1OCC | 9
101 | CCOc1cc2ncnc(Nc3cccc(-c4nccs4)c3)c2cc1OCC | 0.002

Target: T1, Epidermal growth factor receptor
Assay: as §1
Conditions: concentration not given here

Row | SMILES | inhibition [%]
102 | CCOc1cc2nc(CCCCl)nc(Nc3cccc(-c4csc(C)n4)c3)c2cc1OCC | 31
103 | CCOc1cc2nc(CCl)nc(Nc3cccc(-c4csc(C)n4)c3)c2cc1OCC | 10
104 | CCOc1cc2nc(CCCl)nc(Nc3cccc(-c4csc(C)n4)c3)c2cc1OCC | 11
